Target: T1, Can1 (CRISPR ancillary nuclease 1; TTHB155) (Thermus thermophilus, UniProt Q53W14)
T1 construct: full length 636 aa plus C-terminal Leu-Glu; synthetic gene, E. coli C43 (DE3) (SeMet protein in B834), N-terminal His tag cut with TEV; monomer
T1 sequence (Q53W14 1-636): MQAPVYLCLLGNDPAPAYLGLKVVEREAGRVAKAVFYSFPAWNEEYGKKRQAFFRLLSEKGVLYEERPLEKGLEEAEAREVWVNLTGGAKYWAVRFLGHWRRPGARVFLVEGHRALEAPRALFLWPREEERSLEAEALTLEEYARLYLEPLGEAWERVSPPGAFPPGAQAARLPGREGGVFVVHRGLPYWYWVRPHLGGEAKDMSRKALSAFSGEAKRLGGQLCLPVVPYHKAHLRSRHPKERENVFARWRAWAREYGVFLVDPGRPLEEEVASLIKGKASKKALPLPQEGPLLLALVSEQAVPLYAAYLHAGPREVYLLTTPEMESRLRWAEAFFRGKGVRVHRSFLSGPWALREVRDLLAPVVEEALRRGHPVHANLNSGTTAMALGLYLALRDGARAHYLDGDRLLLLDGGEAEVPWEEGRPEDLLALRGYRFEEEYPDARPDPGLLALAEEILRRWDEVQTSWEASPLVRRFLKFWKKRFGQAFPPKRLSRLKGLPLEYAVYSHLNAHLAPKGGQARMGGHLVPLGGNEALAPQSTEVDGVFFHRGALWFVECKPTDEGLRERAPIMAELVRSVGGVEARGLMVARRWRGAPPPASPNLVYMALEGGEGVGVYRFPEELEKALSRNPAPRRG
Assay: X-ray crystal structure ([…] A); also EMSA with […]-labelled cA4, SAXS and nuclease activation
Assay type: binding
Settings: SeMet protein, 1:2 molar ratio with cA4, pH 6.5; site between the two CARF domains; activator

## Nc1ncnc2c1ncn2[C@@H]1O[C@@H]2COP(=O)(O)O[C@H]3[C@@H](O)[C@H](n4cnc5c(N)ncnc54)O[C@@H]3COP(=O)(O)O[C@H]3[C@@H](O)[C@H](n4cnc5c(N)ncnc54)O[C@@H]3COP(=O)(O)O[C@H]3[C@@H](O)[C@H](n4cnc5c(N)ncnc54)O[C@@H]3COP(=O)(O)O[C@H]2[C@H]1O [cA4]
  X-ray crystal structure (1.83 A); also EMSA with 32P-labelled cA4, SAXS and nucl: A molecule of cA4 sits at the interface

Reference: publication PMC6981274, “Structure and mechanism of a Type III CRISPR defence DNA nuclease activated by cyclic oligoadenylate” (Nature Communications, 2020)
